Measurements from EP4570803A1, “SALT FORM AND CRYSTAL FORM OF 5,6-DIHYDROTHIENO[3,4-H]QUINAZOLINE COMPOUND AND PREPARATION METHOD THEREFOR” (NovaOnco JS Therapeutics Co., Ltd., priority 2022, dated 2024).

Tests used:
[1] = Crystalline form screening: suspension crystallization; assay type: physicochemical; conditions: for Result (crystal form): 50 °C, suspension
Excerpt: The operation process of suspension crystallization was to weigh a certain amount of the crystalline form A of the compound of formula (I), add a certain amount of solvent, maintain the system in a state of suspension and stir at a certain temperature, and filter out the solid for analysis after a period of time. Table 6. Suspension crystallization

[2] = Crystalline form screening: cooling crystallization; assay type: physicochemical; conditions: 50-25 °C
Excerpt: The cooling crystallization operation process was to dissolve a certain amount of the crystalline form A of the compound of formula (I) in a certain amount of solvent at high temperature, stir at high temperature for a period of time, and then cool to a lower temperature at a certain cooling rate. If solid precipitates after cooling to a low temperature, filter it out for solid state analysis. Table 7. Cooling crystallization

[3] = Crystalline form screening: anti-solvent crystallization; assay type: physicochemical; conditions: 25 - 5 °C
Excerpt: The operation process of anti-solvent crystallization was to dissolve a certain amount of the crystalline form A of the compound of formula (I) in a positive solvent to obtain a solution of the raw material drug, slowly add the raw material drug solution to the anti-solvent at a certain temperature, and filter out any solid precipitation for analysis. Table 8. Anti-solvent crystallization

[4] = Hygroscopicity study by Dynamic Vapor Sorption (DVS); assay type: physicochemical; conditions: for Hygroscopicity classification: 25°C and 80% RH; for ΔW: weight gain at 25°C, humidity 80 % RH
Description: • Instrument model: SMS DVS Intrinsic Dynamic Vapor Sorption Instrument • Test conditions: Take a sample (10 ~ 30 mg) and place it in the DVS sample pan for testing.
Hygroscopicity classification
10-30 mg of the crystalline form A of the compound of formula (I) was placed in a DVS sample tray for testing.
10-30 mg of the crystalline form B of the compound of formula (II) was placed in a DVS sample tray for testing.
10-30 mg of the crystalline form C of the compound of formula (III) was placed in a DVS sample tray for testing.

[5] = Solid stability test at high temperature and high humidity (XRPD); assay type: physicochemical
Description: According to the "Guidelines for Stability Testing of APIs and Preparations" (Chinese Pharmacopoeia 2020 Edition, Part IV, General Rules 9001), the stabiilty of the crystalline form A of compound of formula (I) and the crystalline form B of compound of formula (II) was investigated at high temperature and high humidity (40°C/75%RH, open) (60°C/75%RH, open) conditions.
Weigh 10-30 mg of the crystalline form A of the formula (I) and the crystalline form B of the compound of formula (II), place them at the bottom of a glass sample bottle, and spread them into a thin layer. The samples were placed open to ensure that the samples were fully in contact with the ambient air. The samples placed under different conditions were sampled and tested (XRPD) on the 10th day, 30th day, and 60th day, and the test results were compared with the initial test results on day 0. Stability test results of the crystalline form of compound A of formula (I) and the crystalline form B of compound of formula (II)

[6] = Pharmacokinetic study of oral administration in male beagle dogs; assay type: in vivo
Description: Oral administration group: Weigh an appropriate amount of the test compound (calculated in free form), dissolve it in a 0.5% MC aqueous solution, vortex and sonicate for 10 min until the compound was milky white and uniformly suspended, and prepare a 1.0 mg/mL uniform suspension solution for use. Male beagle dogs weighing about 11 kg were selected and orally administered with the test compound. Sample collection time was: 0.083, 0.25, 0.5, 1, 2, 4, 6, 8, and 24 hours.
1 mL of whole blood was collected from the forelimb vein to prepare plasma for concentration determination by high performance liquid chromatography - tandem mass spectrometry (LC-MS/MS). The non-compartmental model of WinNonlin 8.2.0 (Pharsight, Mountain View, CA), pharmacokinetic software, was used to process plasma concentrations, and the linear logarithmic trapezoidal method was used to calculate pharmacokinetic parameters. Pharmacokinetic study results of crystalline form A, crystalline form B and crystalline form C

[7] = molecular target: T1, human PLK1 protein kinase (Homo sapiens, UniProt P53350); assay: 33P isotope-labeled PLK1 kinase activity assay in vitro; assay type: biochemical
T1 construct: purchased Reaction Biology Corp
Description: The IC50 value was determined using ^33P isotope-labeled kinase activity assay (Reaction Biology Corp) to evaluate the inhibitory ability of the test compounds on human PLK1 protein kinase.
Buffer conditions: 20 mM HEPES (pH 7.5), 10 mM MgCl2, 1 mM EGTA, 0.01% Brij35, 0.02 mg/ml BSA, 0.1 mM Na3VO4, 2 mM DTT, 1% DMSO
Test steps: Dissolve the test compound in DMSO at room temperature to prepare a 10 mM solution for use. Dissolve the substrate Casein in a freshly prepared buffer (final concentration 20 µM), add the tested PLK1 kinase (final concentration 12 nM) and mix well. Add the DMSO-dissolved test compound stock solution to the above mixed reaction solution using the acoustic pipetting system Echo 550 according to the set final concentration gradient (highest final concentration was 1 µM, 3-fold dilution, 10 gradients). After incubation at room temperature for 20 minutes, add ^33 P-ATP (final concentration 0.01 µCi/µL), incubate at room temperature for 120 minutes, and then spot the reaction solution on P81 ion exchange filter paper (Whatman # 3698-915). After repeatedly washing the filter paper with 0.75% phosphoric acid solution, the level of residual radioactive phosphorylated substrate on the filter paper was determined. % kinase activity = kinase activity test compound/ kinase activity blank group (DMSO) × 100%. […]

[8] = dog, 5 mg/kg, PO, 5.0 mpk (calculated in free state), 0.5% MC aqueous suspension, plasma
[9] = dog, plasma, po, 5 mg/kg, 5.0 mpk (calculated in free state), 0.5% MC aqueous suspension
[10] = listed as crystalline form C of the compound of formula (III)

T1 sequence (P53350 whole entry): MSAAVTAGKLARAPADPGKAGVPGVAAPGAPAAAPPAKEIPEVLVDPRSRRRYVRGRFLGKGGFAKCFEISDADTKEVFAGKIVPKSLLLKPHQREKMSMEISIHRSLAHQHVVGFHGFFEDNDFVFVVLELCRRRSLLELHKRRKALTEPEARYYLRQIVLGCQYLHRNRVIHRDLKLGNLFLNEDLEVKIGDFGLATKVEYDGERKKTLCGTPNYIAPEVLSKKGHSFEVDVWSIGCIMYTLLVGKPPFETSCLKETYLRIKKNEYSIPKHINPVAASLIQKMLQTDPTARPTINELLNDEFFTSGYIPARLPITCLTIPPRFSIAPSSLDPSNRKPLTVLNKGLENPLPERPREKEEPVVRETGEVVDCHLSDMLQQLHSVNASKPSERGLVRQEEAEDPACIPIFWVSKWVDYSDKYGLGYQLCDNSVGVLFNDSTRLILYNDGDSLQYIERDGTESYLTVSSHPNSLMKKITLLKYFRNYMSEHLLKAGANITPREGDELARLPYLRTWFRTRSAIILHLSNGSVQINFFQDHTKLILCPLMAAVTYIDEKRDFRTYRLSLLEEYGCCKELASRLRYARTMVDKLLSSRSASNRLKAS

SMILES: CSc1sc(C(N)=O)c2c1-c1nc(Nc3cc(N4CCN(C)CC4)ccc3OC(F)(F)F)ncc1CC2 [listing 1 of 3 here]
- Result (crystal form) ([1]; Condition 1: Acetonitrile 2.0 mL): crystal form A
- Result (crystal form) ([1]; Condition 2: Ethyl acetate 2.0 mL): crystal form A
- Result (crystal form) ([1]; Condition 3: Toluene 2.0 mL): crystal form A
- Result (crystal form) ([1]; Condition 4: Butanone 1.0 mL): crystal form A
- stability in different solvents and at different temperatures ([1]; conclusion over suspension, cooling and anti-solvent crystallization): good stability
- Result (crystal form) ([2]; Condition 1: Tetrahydrofuran 1.0 mL): crystal form A
- Result (crystal form) ([2]; Condition 2: 2- methyl - tetrahydrofuran 5.0 mL): crystal form A
- Result (crystal form) ([3]; Condition 1: solvent THF, antisolvent H2O, 2.0+4.0 mL): crystal form A
- Result (crystal form) ([3]; Condition 2: solvent THF, antisolvent IPA, 2.0+6 0. mL): crystal form A
- Result (crystal form) ([3]; Condition 3: solvent THF, antisolvent Tol, 2.0+4.0 mL): crystal form A
- Result (crystal form) ([3]; Condition 4: solvent DCM, antisolvent ACN, 4.0 mL): crystal form A
- Result (crystal form) ([3]; Condition 5: solvent DCM, antisolvent MTBE, 4.0 mL): crystal form A
- Result (crystal form) ([3]; Condition 6: solvent DMSO, antisolvent EtOAc, 0.6+8.0 mL): crystal form A
- Hygroscopicity classification [4]: not hygroscopic
- ΔW [4]: 0.1671%
- Crystal form ([5]; 40 °C /75%RH, open, 10 days): crystal form A
- Crystal form ([5]; 40 °C /75%RH, open, 30 days): crystal form A
- Crystal form ([5]; 40 °C /75%RH, open, 60 days): crystal form A
- Crystal form ([5]; 60 °C /75%RH, open, 10 days): crystal form A
- Crystal form ([5]; 60 °C /75%RH, open, 30 days): crystal form A
- Crystal form ([5]; 60 °C /75%RH, open, 60 days): crystal form A
- Crystal form ([5]; Initial sample, Day 0): crystal form A
- stability under high temperature and high humidity conditions ([5]; conclusion): good stability
- absorption after oral administration ([6]; conclusion): well absorbed
- AUC(0-t) [6, 8]: 0.907 µM·h
- Cmax [6, 8]: 106 nM
- Tmax [6, 8]: 3 h
- half-life [6, 8]: 4.6 h
- inhibitory activity against PLK1 ([7]; conclusion): good inhibitory activity
- IC50 ([7]; substrate Casein 20 µM, PLK1 12 nM, 33P-ATP, 120 minutes at room temperature): 2.48 nM

SMILES: CSc1sc(C(N)=O)c2c1-c1nc(Nc3cc(N4CCN(C)CC4)ccc3OC(F)(F)F)ncc1CC2 [listing 2 of 3 here]
- Hygroscopicity classification ([4]; listed as crystalline form B of the compound of formula (II)): hygroscopic
- ΔW ([4]; listed as crystalline form B of compound (II)): 2.078%
- Crystal form ([5]; 40 °C /75%RH, open, 10 days, listed as Crystalline Form B of Compound of Formula (II)): crystal form B
- Crystal form ([5]; 60 °C /75%RH, open, 10 days, listed as Crystalline Form B of Compound of Formula (II)): crystal form B
- Crystal form ([5]; Initial sample, Day 0, listed as Crystalline Form B of Compound of Formula (II)): crystal form B
- AUC(0-t) at 24 h [6, 9]: 1.11 µM·h
- Cmax [6, 9]: 123 nM
- Tmax [6, 9]: 4 h
- half-life [6, 9]: 5 h

SMILES: CSc1sc(C(N)=O)c2c1-c1nc(Nc3cc(N4CCN(C)CC4)ccc3OC(F)(F)F)ncc1CC2 [listing 3 of 3 here]
- Hygroscopicity classification [4, 10]: hygroscopic
- ΔW [4, 10]: 2.919%
- AUC(0-t) at 24 h [6, 8]: 1.59 µM·h
- Cmax [6, 8]: 132 nM
- Tmax [6, 8]: 6 h
- half-life [6, 8]: 4 h
